Patent US8470871B2, “Ligands that modulate RAR receptors” (Galderma Research & Development, priority 2004, dated 2013)
Where a name gives a salt, the structure may show the parent alone.

Tests used:
RARbeta = biological target: T1, RARbeta (Homo sapiens, UniProt P10826); experiment: Transactivation test (Kdapp), RARbeta; assay type: cell-based; settings: HeLa stable transfectants, luciferase reporter, crossed curves against reference agonist, Schild regression
T1 sequence (P10826 183-417 limits assumed): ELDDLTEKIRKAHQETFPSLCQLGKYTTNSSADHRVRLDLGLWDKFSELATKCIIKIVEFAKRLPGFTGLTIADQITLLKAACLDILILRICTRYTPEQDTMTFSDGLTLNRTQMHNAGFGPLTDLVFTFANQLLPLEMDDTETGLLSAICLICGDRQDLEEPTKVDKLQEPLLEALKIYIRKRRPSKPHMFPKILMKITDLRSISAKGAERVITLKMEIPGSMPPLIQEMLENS
Experimental: (§1) The activation of receptors with an agonist (activator) in HeLa cells leads to the expression of a reporter gene, luciferase, which, in the presence of a substrate, generates light. The activation of the receptors may thus be measured by quantifying the luminescence produced after incubating the cells in the presence of a reference agonist. The inhibitory products displace the agonist from its site, thus preventing activation of the receptor. The activity is measured by quantifying the reduction in light produced. This measurement makes it possible to determine the inhibitory activity of the compounds according to the invention.
(§2) In this study, a constant is determined which is the affinity of the molecule for the receptor. Since this value can fluctuate depending on the basal activity and the expression of the receptor, it is referred to as the Kd apparent (KdApp).
(§3) To determine this constant, “crossed curves” of the test product against a reference agonist, 4-[2-(5,5,8,8-tetramethyl-5,6,7,8-tetrahydro-2-naphthyl)propenyl]benzoic acid, are performed in 96-well plates. The test product is used at 10 concentrations and the reference agonist at 7 concentrations. In each well, the cells are in contact with a concentration of the test product and a concentration of the reference agonist, 4-[2-(5,5,8,8-tetramethyl-5,6,7,8-tetrahydro-2-naphthyl)propenyl]benzoic acid. Measurements are also taken for the total agonist (4-[2-(5,5,8,8-tetramethyl-5,6,7,8-tetrahydro-2-naphthyl)propenyl]benzoic acid) and inverse agonist, 4-{(E)-3-[4-(4-tert-butylphenyl)-5,5,8,8-tetramethyl-5,6,7,8-tetrahydro-2-naphthyl]-3-oxopropenyl}benzoic acid, controls.
(§4) The HeLa cell lines used are stable transfectants containing the plasmids ERE-βGlob-Luc-SV-Neo (reporter gene) and RAR (α, β, γ) ER-DBD-puro. These cells are inoculated into 96-well plates at a rate of 10,000 cells per well in 100 μl of DMEM medium without phenol red, and supplemented with 10% defatted calf serum. The plates are then incubated at 37° C. and 7% CO2 for 4 hours.
(§5) The plates are then incubated for 18 hours at 37° C. and 7% CO2.
(§6) The culture medium is removed by turning over and 100 μl of a 1:1 PBS/luciferine mixture is added to each well. After 5 minutes, the plates are read using the luminescence reader.

RARalpha = biological target: T2, RARalpha (Homo sapiens, UniProt P10276); experiment: Transactivation test (Kdapp), RARalpha; assay type: cell-based; settings: HeLa stable transfectants, luciferase reporter, crossed curves against reference agonist, Schild regression
T2 sequence (P10276 183-417 limits assumed): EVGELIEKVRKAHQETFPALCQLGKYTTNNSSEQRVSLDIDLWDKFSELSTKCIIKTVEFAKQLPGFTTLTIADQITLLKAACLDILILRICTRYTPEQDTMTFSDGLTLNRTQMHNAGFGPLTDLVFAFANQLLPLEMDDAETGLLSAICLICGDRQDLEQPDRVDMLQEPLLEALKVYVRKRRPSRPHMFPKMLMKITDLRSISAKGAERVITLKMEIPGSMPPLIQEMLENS
Experimental: as §1, §2, §3, §4, §5, §6

Compound | Kd (RARbeta) [nM] | Kd (RARalpha) [nM] | Kd (RARbeta; hydrochloride) [nM] | Kd (RARalpha; hydrochloride) [nM]
CCN(C(C)=O)c1ccc(-c2cc(-c3ccc(C(=O)O)cc3)ccc2CCCO)cc1C(C)(C)C [Example 37, 4″-(acetylethylamino)-3″-tert-butyl-4′-(3-hydroxypropyl)-[1,1′;3′,1″]terphenyl-4-carboxylic acid] | 120 | 250 |  | 
CCc1cc(-c2cc(-c3ccc(C(=O)O)cc3)ccc2OCCO)ccc1N(CC)CC [Example 13, 4″-diethylamino-3″-ethyl-4′-(2-hydroxyethoxy)-[1,1′;3′,1″]terphenyl-4-carboxylic acid] | 4 | 500 |  | 
CCN(CC)c1ccc(-c2cc(-c3ccc(C(=O)O)cc3)ccc2OCCCO)cc1C [Example 17, 4″-diethylamino-4′-(3-hydroxypropoxy)-3″-methyl[1,1′;3′,1″]terphenyl-4-carboxylic acid] | 8 | 250 |  | 
CCNc1ccc(-c2cc(-c3ccc(C(=O)O)cc3)ccc2OCCCO)cc1C(C)(C)C [Example 54, 3″-tert-butyl-4″-ethylamino-4′-(3-hydroxypropoxy)-[1,1′;3′,1″]terphenyl-4-carboxylic acid] | 4 | 8 |  | 
CCN(CC)c1ccc(-c2cc(-c3ccc(C(=O)O)cc3)ccc2CC(O)CO)cc1C(C)(C)C (centres unmarked) [Example 35, 3″-tert-butyl-4″-diethylamino-4′-(2,3-dihydroxypropyl)-[1,1′;3′,1″]terphenyl-4-carboxylic acid] | 500 | 4000 |  | 
CCN(CC)c1ccc(-c2cc(-c3ccc(C(=O)O)cc3)ccc2CCCO)cc1C(C)(C)C [Example 52, [3″-tert-butyl-4-carboxy-4′-(3-hydroxypropyl)-[1,1′;3′,1″]terphenyl-4″-yl]diethylamine hydrochloride] |  |  | 2 | 30
CCN(C(C)=O)c1ccc(-c2cc(-c3ccc(C(=O)O)cc3)ccc2OCCCCO)cc1C(C)(C)C [Example 5, 4″-(acetylethylamino)-3″-tert-butyl-4′-(4-hydroxybutoxy)-[1,1′;3′,1″]terphenyl-4-carboxylic acid] | 8 | 8 |  | 
CCN(C(C)=O)c1ccc(-c2cc(-c3ccc(C(=O)O)cc3)ccc2CCCNC2CC2)cc1C(C)(C)C [Example 47, 4″-(acetylethylamino)-3″-tert-butyl-4′(3-cyclopropylaminopropyl)[1,1′;3′,1″]terphenyl-4-carboxylic acid] | 250 |  |  | 
CCN(CC)c1ccc(-c2cc(-c3ccc(C(=O)O)cc3)ccc2CCCO)cc1C(C)(C)C [Example 33, 3″-tert-butyl-4″-diethylamino-4′-(3-hydroxypropyl)-[1,1′;3′,1″]terphenyl-4-carboxylic acid] | 8 | 60 |  | 
